In ChEMBL document CHEMBL5465560, “Selectivity Literature for EUbOPEN Chemogenomic Library” (2024):

Assays:
[1] = molecular target: Receptor tyrosine-protein kinase erbB-2 (Homo sapiens, UniProt P04626); conditions: at 10 µM
[2] = molecular target: T1, Dual specificity mitogen-activated protein kinase kinase 4 (Homo sapiens) (UniProt P45985); experiment: Selectivity interaction (Kinase panel (DSF assay)) EUB0001559a MAP2K4
T1 sequence (whole entry): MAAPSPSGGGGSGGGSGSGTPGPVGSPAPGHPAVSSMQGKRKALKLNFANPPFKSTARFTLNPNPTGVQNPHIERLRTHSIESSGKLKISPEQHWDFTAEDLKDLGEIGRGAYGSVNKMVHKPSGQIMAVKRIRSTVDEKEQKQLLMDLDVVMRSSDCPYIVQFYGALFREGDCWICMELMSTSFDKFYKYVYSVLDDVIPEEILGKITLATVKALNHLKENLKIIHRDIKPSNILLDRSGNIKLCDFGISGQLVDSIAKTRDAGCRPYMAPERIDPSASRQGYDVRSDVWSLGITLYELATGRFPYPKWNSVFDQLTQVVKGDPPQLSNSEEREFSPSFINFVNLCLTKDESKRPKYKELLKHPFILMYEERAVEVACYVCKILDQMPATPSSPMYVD

Ephrin type-A receptor 4 = Ephrin type-A receptor 4 (Homo sapiens, UniProt P54764); experiment: Selectivity interaction (KinomeScan (DiscoverX)) EUB0001079a EPHA4; conditions: at 1 µM
Ephrin type-A receptor 4, sequence (P54764 whole entry): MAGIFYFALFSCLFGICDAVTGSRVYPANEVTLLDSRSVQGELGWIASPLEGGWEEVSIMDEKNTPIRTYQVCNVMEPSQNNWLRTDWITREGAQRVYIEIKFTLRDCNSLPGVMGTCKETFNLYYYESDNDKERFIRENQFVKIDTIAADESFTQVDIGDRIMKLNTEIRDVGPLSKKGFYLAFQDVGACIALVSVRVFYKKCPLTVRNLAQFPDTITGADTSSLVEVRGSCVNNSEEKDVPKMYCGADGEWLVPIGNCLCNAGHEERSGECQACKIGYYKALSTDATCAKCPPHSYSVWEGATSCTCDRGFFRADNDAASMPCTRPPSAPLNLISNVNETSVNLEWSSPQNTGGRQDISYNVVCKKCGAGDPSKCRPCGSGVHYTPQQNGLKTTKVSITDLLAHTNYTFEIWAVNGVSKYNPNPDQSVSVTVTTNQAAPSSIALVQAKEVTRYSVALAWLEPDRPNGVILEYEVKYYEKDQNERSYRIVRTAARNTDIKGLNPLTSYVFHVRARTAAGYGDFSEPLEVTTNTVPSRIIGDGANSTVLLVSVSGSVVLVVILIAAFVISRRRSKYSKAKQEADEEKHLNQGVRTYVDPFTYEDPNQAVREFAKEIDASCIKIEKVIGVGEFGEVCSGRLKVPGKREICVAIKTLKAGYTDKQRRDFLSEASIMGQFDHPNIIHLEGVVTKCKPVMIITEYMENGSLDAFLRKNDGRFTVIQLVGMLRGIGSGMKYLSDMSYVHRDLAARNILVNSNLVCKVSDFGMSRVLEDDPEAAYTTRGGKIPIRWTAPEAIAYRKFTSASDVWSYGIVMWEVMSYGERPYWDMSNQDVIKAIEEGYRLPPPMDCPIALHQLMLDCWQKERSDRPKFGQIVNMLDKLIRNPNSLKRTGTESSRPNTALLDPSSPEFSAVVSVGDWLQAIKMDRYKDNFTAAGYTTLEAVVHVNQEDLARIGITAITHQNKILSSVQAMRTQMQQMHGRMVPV

[3] = molecular target: Activin receptor type-2B (Homo sapiens) (UniProt Q13705); experiment: Selectivity interaction (KinomeScan (DiscoverX)) EUB0001079a ACVR2B; conditions: at 1 µM
Activin receptor type-2B (Homo sapiens), sequence (Q13705 whole entry): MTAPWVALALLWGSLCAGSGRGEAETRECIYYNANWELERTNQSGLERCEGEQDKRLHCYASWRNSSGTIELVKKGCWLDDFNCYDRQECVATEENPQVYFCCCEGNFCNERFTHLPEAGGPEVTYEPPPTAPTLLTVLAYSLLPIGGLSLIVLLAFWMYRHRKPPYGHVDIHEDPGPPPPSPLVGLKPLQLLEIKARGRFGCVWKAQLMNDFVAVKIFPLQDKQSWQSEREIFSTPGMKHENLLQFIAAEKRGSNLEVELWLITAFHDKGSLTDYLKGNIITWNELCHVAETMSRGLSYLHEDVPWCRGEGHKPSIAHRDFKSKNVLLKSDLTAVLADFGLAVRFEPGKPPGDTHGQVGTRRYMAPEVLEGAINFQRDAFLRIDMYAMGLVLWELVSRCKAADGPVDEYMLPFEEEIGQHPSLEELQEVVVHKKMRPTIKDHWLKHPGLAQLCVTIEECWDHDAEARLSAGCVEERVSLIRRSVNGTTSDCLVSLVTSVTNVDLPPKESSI

[4] = molecular target: T2, NUAK family SNF1-like kinase 1 (Homo sapiens) (UniProt O60285); experiment: Selectivity interaction (KinomeScan (DiscoverX)) EUB0001079a NUAK1; conditions: at 1 µM
T2 sequence (whole entry): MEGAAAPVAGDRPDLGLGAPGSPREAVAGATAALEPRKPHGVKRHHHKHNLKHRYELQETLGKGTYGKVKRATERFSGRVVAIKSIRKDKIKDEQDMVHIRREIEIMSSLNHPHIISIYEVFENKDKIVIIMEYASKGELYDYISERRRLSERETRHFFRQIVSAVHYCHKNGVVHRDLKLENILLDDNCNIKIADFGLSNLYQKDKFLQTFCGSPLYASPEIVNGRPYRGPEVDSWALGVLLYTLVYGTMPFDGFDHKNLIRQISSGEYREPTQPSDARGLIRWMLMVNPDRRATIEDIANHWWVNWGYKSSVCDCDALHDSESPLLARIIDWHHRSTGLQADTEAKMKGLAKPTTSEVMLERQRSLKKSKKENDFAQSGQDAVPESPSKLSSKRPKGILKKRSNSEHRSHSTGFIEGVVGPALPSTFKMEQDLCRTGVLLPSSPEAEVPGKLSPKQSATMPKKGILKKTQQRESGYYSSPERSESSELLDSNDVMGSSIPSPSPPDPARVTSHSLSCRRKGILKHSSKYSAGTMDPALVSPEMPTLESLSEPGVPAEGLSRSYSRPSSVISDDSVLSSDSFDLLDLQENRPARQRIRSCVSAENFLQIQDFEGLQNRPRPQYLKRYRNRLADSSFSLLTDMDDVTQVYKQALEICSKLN

[5] = molecular target: cAMP-dependent protein kinase catalytic subunit alpha (Homo sapiens, UniProt P17612); experiment: Selectivity interaction (KinomeScan (DiscoverX)) EUB0000695a PRKACA; conditions: at 100 nM
[6] = molecular target: T3, Mitogen-activated protein kinase kinase kinase kinase 3 (Homo sapiens) (UniProt Q8IVH8); experiment: Selectivity interaction (KinomeScan (DiscoverX)) EUB0000618a MAP4K3; conditions: at 10 µM
T3 sequence (whole entry): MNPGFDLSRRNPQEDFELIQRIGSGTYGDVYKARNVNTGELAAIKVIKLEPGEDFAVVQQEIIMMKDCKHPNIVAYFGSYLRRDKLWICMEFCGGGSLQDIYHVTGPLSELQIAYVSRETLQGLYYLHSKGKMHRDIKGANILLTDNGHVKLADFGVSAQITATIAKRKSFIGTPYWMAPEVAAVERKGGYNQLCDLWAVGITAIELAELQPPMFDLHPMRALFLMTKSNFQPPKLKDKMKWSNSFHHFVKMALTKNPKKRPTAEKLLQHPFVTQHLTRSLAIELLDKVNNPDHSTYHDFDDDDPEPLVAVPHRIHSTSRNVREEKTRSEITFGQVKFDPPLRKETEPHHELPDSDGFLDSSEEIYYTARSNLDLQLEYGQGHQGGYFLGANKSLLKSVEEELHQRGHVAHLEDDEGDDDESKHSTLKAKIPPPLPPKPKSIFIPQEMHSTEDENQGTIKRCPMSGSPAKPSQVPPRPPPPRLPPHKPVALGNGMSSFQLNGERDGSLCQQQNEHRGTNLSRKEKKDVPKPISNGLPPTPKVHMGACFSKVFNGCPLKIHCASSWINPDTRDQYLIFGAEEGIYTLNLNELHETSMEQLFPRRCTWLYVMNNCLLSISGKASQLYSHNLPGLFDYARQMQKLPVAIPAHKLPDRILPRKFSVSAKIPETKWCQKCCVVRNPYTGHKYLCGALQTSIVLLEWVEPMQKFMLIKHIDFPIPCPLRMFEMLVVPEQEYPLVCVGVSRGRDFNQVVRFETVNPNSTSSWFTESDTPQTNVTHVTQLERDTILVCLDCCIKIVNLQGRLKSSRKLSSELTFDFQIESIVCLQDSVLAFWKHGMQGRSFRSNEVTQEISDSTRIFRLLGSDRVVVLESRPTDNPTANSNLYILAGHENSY

[7] = molecular target: Phosphatidylinositol 4,5-bisphosphate 3-kinase catalytic subunit gamma isoform (Homo sapiens) (UniProt P48736); experiment: Selectivity interaction (Ambit KINOMEscan and KiNATiv profiling in Jurkat cells) EUB0000090b PIK3CG; type: cell-based; conditions: at 1 µM
Phosphatidylinositol 4,5-bisphosphate 3-kinase catalytic subunit gamma isoform (Homo sapiens), sequence (P48736 whole entry, looked up, canonical isoform): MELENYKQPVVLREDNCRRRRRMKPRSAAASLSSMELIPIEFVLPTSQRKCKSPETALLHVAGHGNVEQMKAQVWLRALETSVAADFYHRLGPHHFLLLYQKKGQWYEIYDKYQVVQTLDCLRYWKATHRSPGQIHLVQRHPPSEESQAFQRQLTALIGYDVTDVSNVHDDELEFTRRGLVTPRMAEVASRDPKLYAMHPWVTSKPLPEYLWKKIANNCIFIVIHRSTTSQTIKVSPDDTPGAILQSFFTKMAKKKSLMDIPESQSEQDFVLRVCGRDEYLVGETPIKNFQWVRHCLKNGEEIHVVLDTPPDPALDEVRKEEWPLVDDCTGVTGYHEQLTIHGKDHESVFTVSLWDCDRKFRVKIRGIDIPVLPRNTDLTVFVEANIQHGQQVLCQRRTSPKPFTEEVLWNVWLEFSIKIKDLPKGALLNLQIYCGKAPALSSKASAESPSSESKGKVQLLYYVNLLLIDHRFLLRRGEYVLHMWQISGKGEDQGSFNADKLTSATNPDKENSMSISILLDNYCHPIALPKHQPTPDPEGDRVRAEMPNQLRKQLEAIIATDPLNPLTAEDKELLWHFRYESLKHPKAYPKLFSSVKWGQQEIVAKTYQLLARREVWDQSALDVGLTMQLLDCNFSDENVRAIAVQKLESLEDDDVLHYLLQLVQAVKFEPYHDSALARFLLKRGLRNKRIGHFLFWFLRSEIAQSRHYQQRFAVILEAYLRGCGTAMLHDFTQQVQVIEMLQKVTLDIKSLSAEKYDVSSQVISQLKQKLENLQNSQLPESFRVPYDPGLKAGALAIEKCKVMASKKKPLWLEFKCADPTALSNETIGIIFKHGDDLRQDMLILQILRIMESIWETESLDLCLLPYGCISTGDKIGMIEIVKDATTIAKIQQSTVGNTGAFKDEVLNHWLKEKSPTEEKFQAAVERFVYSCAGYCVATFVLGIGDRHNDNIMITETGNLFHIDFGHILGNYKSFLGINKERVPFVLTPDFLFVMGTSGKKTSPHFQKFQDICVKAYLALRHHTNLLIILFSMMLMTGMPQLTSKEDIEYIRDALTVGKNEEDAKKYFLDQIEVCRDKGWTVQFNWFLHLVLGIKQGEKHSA

[8] = molecular target: Calcium/calmodulin-dependent protein kinase type II subunit alpha (Homo sapiens, UniProt Q9UQM7); experiment: Selectivity interaction (Kinase screening (Upstate/Millipore)) EUB0000604a CAMK2A
Calcium/calmodulin-dependent protein kinase type II subunit alpha, sequence (Q9UQM7 whole entry): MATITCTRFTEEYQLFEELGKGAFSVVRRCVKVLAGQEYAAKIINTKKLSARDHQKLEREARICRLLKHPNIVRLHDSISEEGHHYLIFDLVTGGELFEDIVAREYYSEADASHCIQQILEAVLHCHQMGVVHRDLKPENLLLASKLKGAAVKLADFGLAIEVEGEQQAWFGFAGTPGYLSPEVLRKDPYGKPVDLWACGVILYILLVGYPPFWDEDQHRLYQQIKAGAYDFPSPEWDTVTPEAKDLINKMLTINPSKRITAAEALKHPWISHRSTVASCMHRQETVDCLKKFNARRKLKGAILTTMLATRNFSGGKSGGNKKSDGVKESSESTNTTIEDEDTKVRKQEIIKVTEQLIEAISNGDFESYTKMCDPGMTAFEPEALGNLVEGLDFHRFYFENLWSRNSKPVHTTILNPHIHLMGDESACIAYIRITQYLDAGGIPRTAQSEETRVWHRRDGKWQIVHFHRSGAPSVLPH

Receptor tyrosine-protein kinase erbB-2, sequence (P04626 whole entry): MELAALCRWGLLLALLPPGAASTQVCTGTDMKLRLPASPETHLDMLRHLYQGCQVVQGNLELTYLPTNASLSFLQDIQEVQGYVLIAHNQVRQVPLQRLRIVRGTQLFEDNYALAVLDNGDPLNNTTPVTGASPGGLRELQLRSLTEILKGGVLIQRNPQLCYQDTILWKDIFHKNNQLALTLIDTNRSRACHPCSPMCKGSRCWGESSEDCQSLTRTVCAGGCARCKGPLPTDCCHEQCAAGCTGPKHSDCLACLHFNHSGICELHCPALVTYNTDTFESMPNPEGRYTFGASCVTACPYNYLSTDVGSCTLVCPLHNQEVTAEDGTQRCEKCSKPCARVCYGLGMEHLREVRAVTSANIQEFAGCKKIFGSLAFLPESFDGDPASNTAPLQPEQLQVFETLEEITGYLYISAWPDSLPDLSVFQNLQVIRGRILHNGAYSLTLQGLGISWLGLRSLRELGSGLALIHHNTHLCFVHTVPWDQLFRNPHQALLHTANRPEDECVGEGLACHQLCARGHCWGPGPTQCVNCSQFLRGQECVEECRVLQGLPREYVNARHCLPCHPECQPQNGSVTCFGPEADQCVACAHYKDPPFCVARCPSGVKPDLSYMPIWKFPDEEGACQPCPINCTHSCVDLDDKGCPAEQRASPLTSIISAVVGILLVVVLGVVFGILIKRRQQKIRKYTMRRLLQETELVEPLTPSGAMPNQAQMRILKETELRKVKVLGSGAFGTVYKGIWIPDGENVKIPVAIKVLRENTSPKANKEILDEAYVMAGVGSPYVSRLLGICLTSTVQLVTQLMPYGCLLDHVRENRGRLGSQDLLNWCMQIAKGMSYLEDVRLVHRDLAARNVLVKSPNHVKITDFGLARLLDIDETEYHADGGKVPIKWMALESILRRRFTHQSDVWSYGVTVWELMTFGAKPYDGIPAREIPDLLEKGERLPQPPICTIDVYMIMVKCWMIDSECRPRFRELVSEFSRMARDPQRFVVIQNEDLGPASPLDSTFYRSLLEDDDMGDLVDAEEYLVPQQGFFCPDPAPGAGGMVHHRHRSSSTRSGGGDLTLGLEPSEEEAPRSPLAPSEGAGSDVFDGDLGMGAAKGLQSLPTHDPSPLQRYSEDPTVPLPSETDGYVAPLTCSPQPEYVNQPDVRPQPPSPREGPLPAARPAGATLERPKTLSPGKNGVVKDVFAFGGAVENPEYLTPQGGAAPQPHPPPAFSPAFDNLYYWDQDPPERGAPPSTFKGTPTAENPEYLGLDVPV

CCN(CC)CCCCNc1ncc2cc(-c3cc(OC)cc(OC)c3)c(NC(=O)NC(C)(C)C)nc2n1
% of control [1]: 100%

CN(C(=O)c1cnn2cccnc12)c1cc2c(cc1N1CCOCC1)C(=O)N(C[C@@H](F)C(C)(C)O)C2
dTM [2]: 0.2 K

Nc1cnc(N2CCc3cc(S(=O)(=O)Nc4c(F)cc(Cl)cc4F)cc(N4CCCC4=O)c32)nc1 [TP-020n]
% of control (Ephrin type-A receptor 4): 100%
% of control [3]: 80%
% of control [4]: 100%

Cc1cc(F)c(C(=O)Nc2cccc(-c3nncn3C(C)C)n2)cc1-n1cnc(C2CC2)c1
% of control [5]: 99%

O[C@H]1CC[C@H](Nc2ncc3nc(Nc4c(F)cc(F)cc4F)n([C@H]4CCOC4)c3n2)CC1
% of control [6]: 85%

CN(C)C/C=C/C(=O)Nc1ccc(C(=O)N2CCCC(Nc3ncc(Cl)c(-c4c[nH]c5ccccc45)n3)C2)cc1 (centres undefined)
% of control [7]: 92%

Cc1cnc(Nc2ccc(F)cc2Cl)nc1-c1c[nH]c(C(=O)N[C@H](CO)c2cccc(Cl)c2)c1
% of inhibition [8]: 1%
